Source: ChEMBL document CHEMBL1141947, “Inhibitors of the serotonin transporter protein (SERT): the design and synthesis of biotinylated derivatives of 3-(1,2,3,6-tetrahydro-pyridin-4-yl)-1H-indoles. High-affinity serotonergic ligands for conjugation with quantum dots” (Bioorg Med Chem Lett, 2005)

Legend:
[1] = biological target: T1, Sodium-dependent serotonin transporter (Homo sapiens, UniProt P31645); assay: Inhibitory activity of compound bound to streptavidin-conjugated quantum dots against human SERT transfected in HEK293 cells; assay type: cell-based
T1 sequence (P31645 whole entry): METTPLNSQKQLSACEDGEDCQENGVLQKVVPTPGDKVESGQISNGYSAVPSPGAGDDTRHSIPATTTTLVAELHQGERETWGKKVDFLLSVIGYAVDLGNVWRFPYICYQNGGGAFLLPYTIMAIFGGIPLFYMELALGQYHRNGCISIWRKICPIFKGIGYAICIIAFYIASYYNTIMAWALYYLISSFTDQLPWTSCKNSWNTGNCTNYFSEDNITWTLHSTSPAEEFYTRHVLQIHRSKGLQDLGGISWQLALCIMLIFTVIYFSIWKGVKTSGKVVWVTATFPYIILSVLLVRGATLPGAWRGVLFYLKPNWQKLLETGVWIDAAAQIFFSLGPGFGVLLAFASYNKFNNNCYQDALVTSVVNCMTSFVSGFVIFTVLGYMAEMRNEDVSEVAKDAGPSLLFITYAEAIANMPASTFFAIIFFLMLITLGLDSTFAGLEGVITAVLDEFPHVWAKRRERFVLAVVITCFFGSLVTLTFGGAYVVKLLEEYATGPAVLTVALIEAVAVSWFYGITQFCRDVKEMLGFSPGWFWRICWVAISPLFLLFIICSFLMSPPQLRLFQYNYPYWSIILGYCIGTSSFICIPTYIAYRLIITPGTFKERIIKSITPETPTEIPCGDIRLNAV

[2] = biological target: T1, Sodium-dependent serotonin transporter; assay: Inhibitory activity against human SERT transfected in HEK293 cells; assay type: cell-based

Row | SMILES | IC50 [1] | IC50 [2]
1 | NCCc1c[nH]c2ccc(OCCOCCOCCS)cc12 | 99 µM | 115 µM
2 | O=C(CCCCC1SCC2NC(=O)NC21)NCCN1CC=C(c2c[nH]c3ccccc23)CC1 (centres undefined) | 0.03 µM | 0.002 µM
